# Data from ChEMBL document CHEMBL4725257, “Investigation into the influence of an acrylic acid acceptor in organic D-π-A sensitizers against phototoxicity” (Bioorg Med Chem, 2020).
# What was measured:
# [1] = system: HeLa; experiment: Cytotoxicity against human HeLa cells assessed as reduction in cell viability incubated for 48 hrs measured under dark conditions by MTT assay; type: functional, cell-based
# [2] = Photo-oxidation of L-tryptophan assessed as oxidative damage at 10 uM irradiated with white LED light at 15 mins interval for 60 mins by fluorescence based analysis; type: ADME; conditions: 1 h
# [3] = Drug uptake in human HeLa cells at 20 uM pretreated with endosome fusion inhibitor, wortmannin for 1 hr followed incubation with compound for 1 hr by fluorescence based analysis; type: ADME, cell-based
# [4] = Phototoxicity index, ratio of IC50 for cytotoxicity against human HeLa cells measured under dark condition to IC50 for phototoxicity against human HeLa cells upon white LED light irradiation; type: functional
# [5] = system: HeLa; experiment: Phototoxicity against human HeLa cells assessed as reduction in cell viability preincubated for 1 hr followed by white LED irradiation for 15 mins and measured after 48 hrs by MTT assay; type: functional, cell-based; conditions: light or radiation study
# [6] = Drug uptake in human HeLa cells at 20 uM pretreated with lipid raft endocytosis inhibitor, methyl-beta-cyclodextrin for 1 hr followed by incubation with compound for 1 hr by fluorescence based analysis; type: ADME, cell-based
# [7] = Drug uptake in human HeLa cells at 20 uM incubated for 1 hr at 4 degC by fluorescence based analysis; type: ADME, cell-based
# [8] = Drug uptake in lysosomes of human HeLa cell by fluorescence confocal microscopy; type: ADME, subcellular, Lysosome
# [9] = Drug uptake in human HeLa cell membrane by fluorescence confocal microscopy; type: ADME, cell membranes
# [10] = Drug uptake in mitochondria of human HeLa cell by fluorescence confocal microscopy; type: ADME
# [11] = Drug uptake in human HeLa cells at 20 uM pretreated with clathrin-mediated endocytosis inhibitor, sucrose for 1 hr followed by incubation with compound for 1 hr by fluorescence based analysis; type: ADME, cell-based
# [12] = Drug uptake in human HeLa cells at 20 uM incubated for 1 hr at 37 degC by fluorescence based analysis; type: ADME, cell-based
# [13] = Photo-oxidation of L-tryptophan assessed as oxidative damage at 10 uM irradiated with white LED light at 15 mins interval for 60 mins in presence of type 2 singlet oxygen quencher, NaN3 by fluorescence based analysis; type: ADME; conditions: 1 h
SMILES,IC50 [1],Activity [2],Drug uptake [3],Ratio IC50 [4],IC50 [5],Drug uptake [6],Drug uptake [7],Drug uptake [8],Drug uptake [9],Drug uptake [10],Drug uptake [11],Drug uptake [12],Activity [13]
C[n+]1ccc(/C=C/c2ccc(-c3ccc(-c4ccc(N(c5ccccc5)c5ccccc5)cc4)s3)s2)cc1.[I-],3.3 µM,Active,649 pmol,3.5,0.94 µM,555 pmol,344 pmol,Active,Active,Active,591 pmol,747 pmol,–
O=C(O)CCc1ccc(-c2ccc(-c3ccc(N(c4ccccc4)c4ccccc4)cc3)s2)s1,43.4 µM,Active,225 pmol,18,2.4 µM,98 pmol,44 pmol,Active,–,Active,199 pmol,232 pmol,–
N#CC(C#N)=Cc1ccc(-c2ccc(-c3ccc(N(c4ccccc4)c4ccccc4)cc3)s2)s1,> 100 µM,–,–,–,> 74.4 µM,–,–,–,–,–,–,–,–
O=C(O)C(=Cc1ccc(-c2ccc(-c3ccc(N(c4ccccc4)c4ccccc4)cc3)s2)s1)C(=O)O,61.8 µM,Active,–,91,0.68 µM,–,36 pmol,Active,–,Active,–,53 pmol,Not Active
O=C(O)c1ccc(-c2ccc(-c3ccc(N(c4ccccc4)c4ccccc4)cc3)s2)s1,> 100 µM,Active,205 pmol,>12,7.8 µM,82 pmol,64 pmol,Active,–,Active,188 pmol,299 pmol,–
O=C(O)/C=C/c1ccc(-c2ccc(-c3ccc(N(c4ccccc4)c4ccccc4)cc3)s2)s1,13.8 µM,Active,–,460,0.046 µM,–,40 pmol,Active,–,Active,–,80 pmol,–
COC(=O)/C(C#N)=C/c1ccc(-c2ccc(-c3ccc(N(c4ccccc4)c4ccccc4)cc3)s2)s1,> 100 µM,–,–,–,> 100 µM,–,–,–,–,–,–,–,–
c1ccc(N(c2ccccc2)c2ccc(-c3ccc(-c4cccs4)s3)cc2)cc1,> 100 µM,Active,–,–,> 100 µM,–,68 pmol,Active,–,Active,–,105 pmol,–
